{"source": "patent US20250255800A1", "about": "“DETERGENT COMPOSITIONS FOR WASHING URUSHIOL AND METHODS OF TREATING URUSHIOL INDUCED CONTACT DERMATITIS” (THE WILLIAM M. YARBROUGH FOUNDATION, priority 2020, published 2025)", "origin": "cited, not measured here", "key": {"aquatic organisms": {"test_system": "aquatic organisms", "details": "EPA statement / GHS Hazard Statement H411"}, "[1]": {"details": "in vitro and in vivo assays"}}}
{"substance": "nonylphenol [nonylphenol (NP)]", "values": [{"measurement": "toxicity to aquatic life", "setting": "aquatic organisms", "value": "extremely toxic to aquatic organisms"}, {"measurement": "estrogenic properties", "setting": "[1]", "value": "exhibit estrogenic properties"}]}
{"substance": "nonoxynol 9 [nonoxynol-9]", "values": [{"measurement": "toxicity to aquatic life", "setting": "aquatic organisms", "value": "toxic to aquatic life with long lasting effects"}]}
